{
  "source": "patent US7989469B2",
  "about": "“Certain chemical entities, compositions, and methods” (Cytokinetics, Incorporated, priority 2008, dated 2011)",
  "system": "rabbit skeletal muscle myofibril preparations (approximately 90% fast fibers)",
  "test": "Activation of fast skeletal muscle fibers: enzymatic activity of myofibril preparations (PUMA assay system)",
  "format": "biochemical",
  "parameters": "unit not given here",
  "settings": "detergent treated myofibrils at pCa25%, 500 μM ATP",
  "description": "Fast fiber activators were identified by measuring the enzymatic activity of muscle myofibril preparations using the proprietary PUMA™ (see, e.g., U.S. Pat. Nos. 6,410,254, 6,743,599, 7,202,051, and 7,378,254) assay system. Myofibril preparations consisted of rabbit skeletal muscle (approximately 90% fast fibers) that had been treated with a detergen (triton X-100) to remove cellular membranes and then homogenized. This preparation retained all of the sarcomeric components in a native conformation and the enzymatic activity was still regulated by calcium. Compounds were tested using a myofibril suspension and a level of calcium sufficient to increase enzymatic activity of the myofibrils to 25% of their maximal rate (termed pCa25%). Enzymatic activity was tracked via a kinetic assay with a UV absorption readout. Hits were identified as compounds that increased the rate of enzymatic activity by greater than 40% at 40 μM. Myofibril preparations are calcium regulated and were screened at a level of calcium sufficient to produce a 25% increase in enzymatic rate. Detergent treated myofibrils were incubated with 500 μM ATP and 40 μM compound and a kinetic read of UV absorbance performed. Data was normalized to control wells.",
  "data": [
    {"molecule": "6-chloro-1-(ethylpropyl)-7-(3-fluoro(4-pyridyl))imidazo[4,5-b]pyridin-2-ol", "values": [
      {"measurement": "AC1.4 Median", "setting": "median value (no †)", "result": 1.709}
    ]},
    {"molecule": "CC[C@@H](CO)n1c(O)nc2ncc(Cl)c(-c3ccc(C#N)cc3)c21", "note": "[4-[1-((1S)-1-ethyl-2-hydroxyethyl)-6-chloro-2-hydroxyimidazo[4,5-b]pyridin-7-yl]benzenecarbonitrile]", "values": [
      {"measurement": "AC1.4 Median", "setting": "median value (no †)", "result": 3.249}
    ]},
    {"molecule": "CC[C@H](CN)n1c(O)nc2ncc(Cl)c(-c3ccc(F)cc3)c21", "note": "[1-((1R)-2-amino-1-ethylethyl)-6-chloro-7-(4-fluorophenyl)imidazo[4,5-b]pyridin-2-ol]", "values": [
      {"measurement": "AC1.4 Median", "setting": "median value (no †)", "result": 46.969}
    ]},
    {"molecule": "3-[6-chloro-1-(ethylpropyl)-2-hydroxyimidazo[4,5-b]pyridin-7-yl]benzenecarbonitrile", "values": [
      {"measurement": "AC1.4 Median", "setting": "median value (no †)", "result": 3.336}
    ]},
    {"molecule": "6-chloro-1-(ethylpropyl)-7-[4-(trifluoromethoxy)phenyl]imidazo[4,5-b]pyridin-2-ol", "values": [
      {"measurement": "AC1.4 Median", "setting": "median value (no †)", "result": 0.781}
    ]},
    {"molecule": "CC[C@H](CC(C)(C)O)n1c(O)nc2ncc(Cl)c(-c3ccc(F)cc3)c21", "note": "[1-((1R)-1-ethyl-3-hydroxy-3-methylbutyl)-6-chloro-7-(4-fluorophenyl)imidazo[4,5-b]pyridin-2-ol]", "values": [
      {"measurement": "AC1.4 Median", "setting": "median value (no †)", "result": 2.9192}
    ]},
    {"molecule": "6-chloro-1-(ethylpropyl)-7-(3-fluorophenyl)imidazo[4,5-b]pyridin-2-ol", "values": [
      {"measurement": "AC1.4 Median", "setting": "cells marked †: Mean value", "result": "0.248†"}
    ]},
    {"molecule": "6-chloro-1-(ethylpropyl)-7-(2-methoxy(4-pyridyl))imidazo[4,5-b]pyridin-2-ol", "values": [
      {"measurement": "AC1.4 Median", "setting": "median value (no †)", "result": 2.808}
    ]},
    {"molecule": "6-chloro-1-(ethylpropyl)-7-(6-methoxy(3-pyridyl))imidazo[4,5-b]pyridin-2-ol", "values": [
      {"measurement": "AC1.4 Median", "setting": "median value (no †)", "result": 2.232}
    ]},
    {"molecule": "6-chloro-1-(ethylpropyl)-7-(3-methoxyphenyl)imidazo[4,5-b]pyridin-2-ol", "values": [
      {"measurement": "AC1.4 Median", "setting": "median value (no †)", "result": 2.001}
    ]},
    {"molecule": "6-chloro-7-(4-chlorophenyl)-1-(ethylpropyl)imidazo[4,5-b]pyridin-2-ol", "values": [
      {"measurement": "AC1.4 Median", "setting": "cells marked †: Mean value", "result": "0.074†"}
    ]},
    {"molecule": "CC[C@@H](C)n1c(O)nc2nccc(-n3cccn3)c21", "note": "[1-((1R)-1-methylpropyl)-7-pyrazolylimidazo[4,5-b]pyridin-2-ol]", "values": [
      {"measurement": "AC1.4 Median", "setting": "median value (no †)", "result": 18.6973}
    ]},
    {"molecule": "CC[C@@H](CO)n1c(O)nc2ncc(Cl)c(-c3cnccn3)c21", "note": "[1-((1S)-1-ethyl-2-hydroxyethyl)-6-chloro-7-pyrazin-2-ylimidazo[4,5-b]pyridin-2-ol]", "values": [
      {"measurement": "AC1.4 Median", "setting": "median value (no †)", "result": 40.701}
    ]},
    {"molecule": "CC[C@H](CNC(C)=O)c1nc2nc(O)[nH]c2c(-c2ccc(F)cc2)c1Cl", "note": "[N-{(2R)-2-[6-chloro-7-(4-fluorophenyl)-2-hydroxyimidazo[4,5-b]pyridinyl]butyl}acetamide]", "values": [
      {"measurement": "AC1.4 Median", "setting": "median value (no †)", "result": 15.6039}
    ]},
    {"molecule": "4-[6-chloro-1-(ethylpropyl)-2-hydroxyimidazo[4,5-b]pyridin-7-yl]benzenecarbonitrile", "values": [
      {"measurement": "AC1.4 Median", "setting": "cells marked †: Mean value", "result": "0.405†"}
    ]},
    {"molecule": "C[C@H](CO)n1c(O)nc2ncc(Cl)c(-c3ccc(F)cc3)c21", "note": "[1-((1R)-2-hydroxy-isopropyl)-6-chloro-7-(4-fluorophenyl)imidazo[4,5-b]pyridin-2-ol]", "values": [
      {"measurement": "AC1.4 Median", "setting": "median value (no †)", "result": 11.044}
    ]},
    {"molecule": "CC[C@H](CO)n1c(O)nc2ncc(Cl)c(-c3ccc(F)cn3)c21", "note": "[1-((1R)-1-ethyl-2-hydroxyethyl)-6-chloro-7-(5-fluoro(2-pyridyl))imidazo[4,5-b]pyridin-2-ol]", "values": [
      {"measurement": "AC1.4 Median", "setting": "median value (no †)", "result": 7.658}
    ]},
    {"molecule": "6-chloro-1-(ethylpropyl)-7-(5-methyl(2-pyridyl))imidazo[4,5-b]pyridin-2-ol", "values": [
      {"measurement": "AC1.4 Median", "setting": "median value (no †)", "result": 5.708}
    ]},
    {"molecule": "6-[6-chloro-1-(ethylpropyl)-2-hydroxyimidazo[4,5-b]pyridin-7-yl]pyridine-3-carbonitrile", "values": [
      {"measurement": "AC1.4 Median", "setting": "median value (no †)", "result": 2.892}
    ]},
    {"molecule": "6-chloro-1-(ethylpropyl)-7-(2-pyridyl)imidazo[4,5-b]pyridin-2-ol", "values": [
      {"measurement": "AC1.4 Median", "setting": "median value (no †)", "result": 1.616}
    ]},
    {"molecule": "CC[C@@H](CO)n1c(O)nc2ncc(Cl)c(-c3ccc(F)c(F)c3)c21", "note": "[1-((1S)-1-ethyl-2-hydroxyethyl)-7-(3,4-difluorophenyl)-6-chloroimidazo[4,5-b]pyridin-2-ol]", "values": [
      {"measurement": "AC1.4 Median", "setting": "median value (no †)", "result": 0.707}
    ]},
    {"molecule": "6-chloro-1-(ethylpropyl)-7-(4-methyl(2-pyridyl))imidazo[4,5-b]pyridin-2-ol", "values": [
      {"measurement": "AC1.4 Median", "setting": "median value (no †)", "result": 11.301}
    ]},
    {"molecule": "OCCn1c(O)nc2ncc(Cl)c(-c3ccccc3)c21", "note": "[6-chloro-1-(2-hydroxyethyl)-7-phenylimidazo[4,5-b]pyridin-2-ol]", "values": [
      {"measurement": "AC1.4 Median", "setting": "median value (no †)", "result": 34.551}
    ]},
    {"molecule": "6-chloro-1-(ethylpropyl)-7-[3-(methoxymethyl)phenyl]imidazo[4,5-b]pyridin-2-ol", "values": [
      {"measurement": "AC1.4 Median", "setting": "median value (no †)", "result": 8.109}
    ]},
    {"molecule": "6-chloro-1-(ethylpropyl)-7-(5-methylpyrimidin-2-yl)imidazo[4,5-b]pyridin-2-ol", "values": [
      {"measurement": "AC1.4 Median", "setting": "median value (no †)", "result": 18.694}
    ]},
    {"molecule": "6-chloro-7-(2-chloro-4-methylphenyl)-1-(ethylpropyl)imidazo[4,5-b]pyridin-2-ol", "values": [
      {"measurement": "AC1.4 Median", "setting": "median value (no †)", "result": 0.587}
    ]},
    {"molecule": "CC[C@H](CO)n1c(O)nc2ncc(Cl)c(-c3ccc(F)cc3)c21", "note": "[1-((1R)-1-ethyl-2-hydroxyethyl)-6-chloro-7-(4-fluorophenyl)imidazo[4,5-b]pyridin-2-ol]", "values": [
      {"measurement": "AC1.4 Median", "setting": "median value (no †)", "result": 2.367}
    ]},
    {"molecule": "7-(1H-indazol-6-yl)-6-chloro-1-(ethylpropyl)imidazo[4,5-b]pyridin-2-ol", "values": [
      {"measurement": "AC1.4 Median", "setting": "median value (no †)", "result": 4.216}
    ]},
    {"molecule": "6-chloro-1-(ethylpropyl)-7-(1-methylpyrazol-3-yl)imidazo[4,5-b]pyridin-2-ol", "values": [
      {"measurement": "AC1.4 Median", "setting": "median value (no †)", "result": 1.7950}
    ]},
    {"molecule": "6-chloro-1-(ethylpropyl)-7-(4-methylphenyl)imidazo[4,5-b]pyridin-2-ol", "values": [
      {"measurement": "AC1.4 Median", "setting": "cells marked †: Mean value", "result": "0.336†"}
    ]},
    {"molecule": "C[C@@H](CO)n1c(O)nc2ncc(Cl)c(-c3ccc(Cl)cc3)c21", "note": "[1-((1S)-2-hydroxy-isopropyl)-6-chloro-7-(4-chlorophenyl)imidazo[4,5-b]pyridin-2-ol]", "values": [
      {"measurement": "AC1.4 Median", "setting": "median value (no †)", "result": 1.260}
    ]},
    {"molecule": "CC[C@@H](CO)n1c(O)nc2ncc(F)c(-c3ccc(F)cc3)c21", "note": "[1-((1S)-1-ethyl-2-hydroxyethyl)-6-fluoro-7-(4-fluorophenyl)imidazo[4,5-b]pyridin-2-ol]", "values": [
      {"measurement": "AC1.4 Median", "setting": "median value (no †)", "result": 4.204}
    ]},
    {"molecule": "6-chloro-1-(ethylpropyl)-7-(3-fluoro-4-methoxyphenyl)imidazo[4,5-b]pyridin-2-ol", "values": [
      {"measurement": "AC1.4 Median", "setting": "median value (no †)", "result": 2.102}
    ]},
    {"molecule": "6-chloro-1-(ethylpropyl)-7-(2-fluorophenyl)imidazo[4,5-b]pyridin-2-ol", "values": [
      {"measurement": "AC1.4 Median", "setting": "cells marked †: Mean value", "result": "0.230†"}
    ]},
    {"molecule": "CCC(COP(=O)(O)O)c1nc2nc(O)[nH]c2c(-c2ccc(F)c(F)c2)c1Cl", "note": "(stereo not drawn) [2-[7-(3,4-difluorophenyl)-6-chloro-2-hydroxyimidazo[4,5-b]pyridinyl]butyl dihydrogen phosphate]", "values": [
      {"measurement": "AC1.4 Median", "setting": "median value (no †)", "result": 44.713}
    ]},
    {"molecule": "6-chloro-1-(ethylpropyl)-7-pyrazol-4-ylimidazo[4,5-b]pyridin-2-ol", "values": [
      {"measurement": "AC1.4 Median", "setting": "median value (no †)", "result": 38.791}
    ]},
    {"molecule": "CC[C@@H](CN)n1c(O)nc2ncc(Cl)c(-c3ccc(F)cc3)c21", "note": "[1-((1S)-2-amino-1-ethylethyl)-6-chloro-7-(4-fluorophenyl)imidazo[4,5-b]pyridin-2-ol]", "values": [
      {"measurement": "AC1.4 Median", "setting": "median value (no †)", "result": 24.3174}
    ]},
    {"molecule": "6-chloro-1-(ethylpropyl)-7-(5-fluoro(2-pyridyl))imidazo[4,5-b]pyridin-2-ol", "values": [
      {"measurement": "AC1.4 Median", "setting": "cells marked †: Mean value", "result": "0.268†"}
    ]},
    {"molecule": "2-[6-chloro-1-(ethylpropyl)-2-hydroxyimidazo[4,5-b]pyridin-7-yl]benzamide", "values": [
      {"measurement": "AC1.4 Median", "setting": "median value (no †)", "result": 36.169}
    ]},
    {"molecule": "6-chloro-7-(3-chloro(4-pyridyl))-1-(ethylpropyl)imidazo[4,5-b]pyridin-2-ol", "values": [
      {"measurement": "AC1.4 Median", "setting": "median value (no †)", "result": 4.471}
    ]},
    {"molecule": "6-chloro-1-(ethylpropyl)-7-[4-(trifluoromethyl)phenyl]imidazo[4,5-b]pyridin-2-ol", "values": [
      {"measurement": "AC1.4 Median", "setting": "cells marked †: Mean value", "result": "0.274†"}
    ]},
    {"molecule": "Cn1c(O)nc2ncc(Cl)c(-c3ccc(F)cc3)c21", "note": "[6-chloro-7-(4-fluorophenyl)-1-methylimidazo[4,5-b]pyridin-2-ol]", "values": [
      {"measurement": "AC1.4 Median", "setting": "median value (no †)", "result": 12.620}
    ]}
  ]
}
